Assay results published in PubChem BioAssay (NCI).
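Method: 48-hour compound exposure of cells in 96-well plates, five concentrations, linear interpolation of endpoints. Abbreviation: GI50, concentration required for 50% inhibition of growth. TGI marks complete inhibition of growth.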

Assays:
Experiment in all cases: inhibition of tumour cell growth, NCI panel, 48 h
OVCAR-5 ovarian = tested on: OVCAR-5 ovarian
NCI-H23 lung = tested on: NCI-H23 lung
SNB-19 CNS = tested on: SNB-19 CNS
SF-295 CNS = tested on: SF-295 CNS
COLO 205 colon = tested on: COLO 205 colon
HS 578T breast = tested on: HS 578T breast
HCT-116 colon = tested on: HCT-116 colon
NCI-H522 lung = tested on: NCI-H522 lung
MOLT-4 leukemia = tested on: MOLT-4 leukemia
HOP-62 NSCLC = tested on: HOP-62 NSCLC

| Compound | GI50 (OVCAR-5 ovarian) [µM] | TGI (OVCAR-5 ovarian) [µM] | GI50 (NCI-H23 lung) [µM] | TGI (NCI-H23 lung) [µM] | GI50 (SNB-19 CNS) [µM] | TGI (SNB-19 CNS) [µM] | GI50 (SF-295 CNS) [µM] | TGI (SF-295 CNS) [µM] | GI50 (COLO 205 colon) [µM] | TGI (COLO 205 colon) [µM] | GI50 (HS 578T breast) [µM] | TGI (HS 578T breast) [µM] | GI50 (HCT-116 colon) [µM] | TGI (HCT-116 colon) [µM] | GI50 (NCI-H522 lung) [µM] | TGI (NCI-H522 lung) [µM] | GI50 (MOLT-4 leukemia) [µM] | TGI (MOLT-4 leukemia) [µM] | TGI (HOP-62 NSCLC) [µM] | GI50 (HOP-62 NSCLC) [µM] |
| --- | --- | --- | --- | --- | --- | --- | --- | --- | --- | --- | --- | --- | --- | --- | --- | --- | --- | --- | --- | --- |
| O=C1Nc2ccccc2/C1=C/C(=O)c1coc2c1C(=O)c1ccccc1C2=O | > 100 | > 100 | > 100 | > 100 | > 100 | > 100 | > 100 | > 100 | > 100 | > 100 | > 100 | > 100 | > 100 | > 100 | > 100 | > 100 | 62.3 | > 100 |  |  |
| COC(=O)N/N=C(\Cc1ccccc1)CN(C)C |  | > 100 |  | > 100 |  |  |  | > 100 |  | > 100 |  |  |  | > 100 |  | > 100 |  | > 100 | > 100 |  |
| Cn1cc(C(=O)NCCC(=N)N)cc1NC(=O)C1=[N+](C)C=C(NC(=O)c2cccc(C(=O)NC3=CC(C(=O)Nc4cc(C(=O)NCCC(=N)N)cn4C)=[N+](C)C3)c2)C1 |  |  |  | > 100 |  | > 100 |  | > 100 |  | > 100 |  |  |  |  |  | > 100 |  | > 100 | > 100 |  |
| CCS(CC)(CC)CC1CCCC2=CCC(P(=O)(c3ccccc3)c3ccccc3)CC21 (stereo not given) |  | 30.4 |  | 25.6 |  | 29 |  | 16.3 |  | 37.4 |  |  |  | 20.7 |  | 25.5 |  | 25.2 | 32 |  |
| O=C1c2ccccc2C(O)(O)C1(O)C1(O)C(=O)c2ccccc2C1(O)O (stereo not given) |  | > 100 |  | 38.2 |  | > 100 |  | 88.5 |  | 40.5 |  | > 100 |  | 54.1 |  | 44.5 |  |  | 54.1 |  |
| Oc1ccccc1/C=C/c1csnn1 |  | > 100 |  | > 100 |  | > 100 |  | > 100 |  | > 100 |  |  |  | > 100 |  | > 100 |  | > 100 | > 100 |  |
| COc1cc2c(c(OC)c1OC)-c1ccc(SC)c(=O)cc1C(CO)C2 (stereo not given) | > 100 | > 100 | < 0.01 | < 0.01 | < 0.01 | > 100 | < 0.01 | > 100 | < 0.01 |  |  |  | < 0.01 |  |  | 0.271 | < 0.01 | > 100 | > 100 | < 0.01 |
| COc1cc(/C=C2/C(=O)N(C(=O)OCC(C)C)C(Cc3cc(OC)c(OC)c(C)c3OC)C(=O)N2Cc2ccccc2)c(OC)c(C)c1OC (stereo not given) |  | > 100 |  | > 100 |  | > 100 |  | > 100 |  | > 100 |  |  |  | > 100 |  | > 100 |  | > 100 | > 100 |  |
| COc1ccc(Br)c(N/N=C2\CCCNC2=O)c1 |  | > 100 |  | > 100 |  | > 100 |  | > 100 |  | > 100 |  |  |  | > 100 |  | > 100 |  | > 100 | > 100 |  |
| CC(=O)CC(=O)OC1CC(C)CCC1C(C)C (stereo not given) |  | > 100 |  | > 100 |  | > 100 |  | > 100 |  | > 100 |  |  |  | 80.1 |  | > 100 |  | 44.2 | > 100 |  |
| COC1CC(OS(=O)(=O)c2ccc([N+](=O)[O-])cc2)C(OC(=O)c2ccccc2)C(C)O1 (stereo not given) |  | > 100 |  | > 100 |  | > 100 |  | > 100 |  | > 100 |  |  |  | > 100 |  | > 100 |  | > 100 | > 100 |  |
| Cc1ccc(S(=O)(=O)OC2CSS(=O)CC2OS(=O)(=O)c2ccc(C)cc2)cc1 (stereo not given) |  | 32.1 |  | 29 |  | 32 |  | 29.2 |  | 24.1 |  |  |  | 27.1 |  | 22.6 |  | 9.03 | 36.7 |  |
| CCCCOC(=O)C1C2CCC(O2)C1C(=O)OCCCC (stereo not given) |  | > 100 |  | > 100 |  | > 100 |  | > 100 |  | > 57.3 |  |  |  | > 65.1 |  | > 100 |  | > 100 | > 100 |  |
| COc1cc2c(cc1C)NC(=O)/C2=C/c1ccccn1 | 3.46 | 43.9 | 2.76 | 9.1 | 4.07 | > 100 | 3.46 | 13.3 | 4.23 | > 100 |  |  | 2.53 | > 100 | 3.37 | > 100 | 4.28 | > 100 | > 100 | 4.24 |
| Oc1c(C(Nc2cccc3cccnc23)c2ccccc2)ccc2cccnc12 (stereo not given) |  | > 100 |  | > 100 |  | > 100 |  | > 100 |  | > 100 |  |  |  | > 100 |  | 73.8 |  | > 100 | > 100 |  |
| C(#Cc1ccccc1C#Cc1cccs1)c1cccs1 | 25.6 | 83.2 | 51.6 | > 100 | > 100 | > 100 | 30.6 | > 100 | 36.4 | > 100 |  |  | 21.8 | > 100 | 34.2 | > 100 | 25.8 | 80.1 | > 100 | 77.3 |
| CCOC(=O)NC(=O)c1cn(CCOC(=O)CCCCCCCCC(=O)OCCn2cc(C(=O)NC(=O)OCC)c(=O)[nH]c2=O)c(=O)[nH]c1=O |  | > 100 |  | 56.7 |  | > 100 |  | > 100 |  |  |  |  |  | > 100 |  |  |  | > 100 | > 100 |  |
| CCC[CH2][Sn]1([CH2]CCC)[O]C(=O)c2cccnc2[O]1 | 11.9 | 24.2 | 1.33 | 2.99 | 2.65 | 10.6 | 3.12 | 10.4 | 1.88 | 3.65 |  |  | 3.61 | 11.4 | 0.476 | 1.67 | 2.09 | 5.96 | 20.9 | 3.95 |
| CN(CCCn1c2c(c3ccccc3c1=O)C(=O)c1ccccc1-2)CCCn1c2c(c3ccccc3c1=O)C(=O)c1ccccc1-2 | 1.66 | 3.59 | 0.249 | 5.25 | 0.081 | 28 | 0.122 | 9.5 | 1.64 | > 45.7 | 2.67 | > 100 | 0.0133 | 0.37 |  | > 100 |  | 1.06 |  |  |
